Assay results taken from PMC9469500, “Targeting an Initiator Allergen Provides Durable and Expansive Protection against House Dust Mite Allergy” (ACS Pharmacology & Translational Science, 2022).
Converted amounts (≈) assume the structure as drawn.

Experiments:
thermodynamic solubility = type: physicochemical; conditions: thermodynamic from solid
permeability (Papp) = type: in vitro ADME; conditions: not told
[1] = test system: rat airway epithelial cell line L2; test: Cellular stability in L2 cells; type: in vitro ADME; conditions: 100 nM compound
Experimental: (§1) Cellular Stability of Compounds
(§2) The cellular stability of compounds in vitro was tested using rat airway epithelial cell line L2 and rat alveolar macrophage line NR8383 (ATCC©CRL-2192™). Assays were performed in replicate and the data expressed as mean ± s.e. mean. L2 cells were cultured to confluence in T25 flasks or 24 -well plates using Kaighn’s modification of Ham’s F12 medium (F12K). Cells were prepared for assay by washing 3 times with serum-free F12K. NR8383 Airway macrophages were grown in suspension culture in F12K, collected by centrifugation, washed in serum-free medium and aliquoted into test plates (1.4 x 10^6 cells/well). Both cell lines were treated with ADI compounds (100 nM) in serum -free F12K in a 5% CO 2 environment at 37 °C. Samples were removed for quantitative analysis by LC -MS-MS using appropriate multiple reaction monitoring transitions for each analyte. […]
(§3) n-Octanol (0.7 mL), pre -saturated with 10 mM PBS, pH7.4, was added to test compound (~1 mg) in a 2 mL HPLC vial followed by PBS (0. 7 mL), which had been pre -saturated with n -octanol. The mixture was shaken for 90 min before centrifugation for 10 min at 4,000 rpm. The upper organic layer (0.2 mL) and the aqueous layer (0.5 mL) were removed for analysis by LC-MS. Peak identity was confirmed by mass spectrometry and concentration assessed spectrophotometrically using a diode array detector. The log

[2] = test system: rat alveolar macrophage line NR8383; test: Cellular stability in macrophages; type: in vitro ADME; conditions: 100 nM compound
Experimental: as §1, §2, §3

plasma stability (rat) = type: in vitro ADME
plasma stability (human) = type: in vitro ADME
[3] = Plasma protein binding (human); type: in vitro ADME
Experimental: Plasma Protein Binding Assay
Plasma protein binding (PPB) was determined using Rapid Equilibrium Dialysis chambers with 8 kDa cut-off inserts (Fisher Scientific UK Ltd, Leicestershire, UK). Rat (Sprague Dawley strain) plasma EDTA K2 (pooled, mixed sex, SeraLab, West Sussex, UK) was centrifuged (13,000 x g, 10 min) to remove precipitates before addition of compounds (initial concentration 5 µM). Concentrations were determined by liquid chromatography-tandem mass spectrometry (LC-MS-MS) (AB Sciex 3200 QTrap) after 4 h incubation at 37 °C with binding being calculated from the concentration of compound in each chamber. Assays were performed in replicate and the data expressed as mean ± s.e.
Cellular Stability of Compounds […]
Kaighn’s modification of Ham’s F12 medium (F12K). Cells were prepared for assay by washing 3 times with serum-free F12K. NR8383 Airway macrophages were grown in suspension culture in F12K, collected by centrifugation, washed in serum-free medium and aliquoted into test plates (1.4 x 10^6 cells/well). Both cell lines were treated with ADI compounds (100 nM) in serum -free F12K in a 5% CO 2 environment at 37 […]
n-Octanol (0.7 mL), pre -saturated with 10 mM PBS, pH7.4, was added to test compound (~1 mg) in a 2 mL HPLC vial followed by PBS (0. 7 mL), which had been pre -saturated with n -octanol. […]

[4] = hepatocyte stability (rat); type: in vitro ADME; conditions: hepatocytes
[5] = hepatocyte stability (human); type: in vitro ADME; conditions: hepatocytes
unsensitized BN rats = test: HDM extract challenge in unsensitized (naive) BN rats, duration of protection; type: in vivo
sensitized Balb/c mice = test: HDM extract challenge in sensitized Balb/c mice (BAL flow cytometry); type: in vivo; conditions: HDM 10; i.t. 2 h prior to challenge; BAL 48 h
Experimental: Mice (female Balb/c 20 ± 2 g, Charles River) were isolator maintained in ventilated cages (Allentown IVC Racks, 36 Mini Isolator System, USA) that had been prepared for use by prior autoclaving. Environmental controls were 22–24 °C/60–80% relative humidity on a 12 h light/dark cycle. Animals were allowed ad libitum access to reverse osmosis-purified water and food (MF-18 laboratory rodent diet). Where prestudy serum samples were mandated, these were taken from the retro-orbital sinus on acclimatization in the isolator facility. Animals were randomly assigned to groups and sensitized to the HDM extract or treated with the vehicle on days 0, 7, and 14. […] Animals were anesthetized with propofol 48 h later (AstraZeneca, 10 mg/mL, 50 μL/mouse, i.v.), and terminal blood samples were taken from the retro-orbital sinus. BAL (3 × 0.5 mL aliquots of PBS) was performed, and the returns were combined for enumeration.
Flow cytometry (FACS) of BAL fluid was performed with a BD FACSAria instrument (Becton Dickinson Biosciences, USA) and the FACSDiva software. Analyses were performed by operators who were unaware of the sample identity. […]

[6] = read-out: hepatocyte intrinsic clearance
[7] = HDM-naive rats, 15 μg/kg i.t. aerosol 2 h prior to HDM 10, BAL 48 h
[8] = single i.t. dose (15 μg/kg compound 1, 46 μg/kg compound 2), BAL 48 h

solubility thermodynamic (thermodynamic solubility): 84 µM (≈ 43.9 µg/mL)
Papp (permeability (Papp)): 6.2 ×10⁻⁶ cm/s
cell stability [1]: 100; 100
cell stability [2]: 100; 100
remaining at 2 h (plasma stability (rat)): 100%
remaining at 2 h (plasma stability (human)): 100%
fraction unbound at 4 h, 5 µM [3]: 0.004
half-life [4]: 1.97 h
CLint scaled [4, 6]: 28.2 mL/min/kg
half-life [5]: 3.02 h
CLint scaled [5, 6]: 11.7 mL/min/kg
Compound: CC(C)[C@H](NC(=O)[C@H](C)NC(=O)[C@@H](NC(=O)c1ccccc1)C(C)(C)C)C(=O)C(=O)NCc1ccccc1 [Compound 1, N-{(S)-1-[(S)-1-((S)-1-benzylaminooxalyl-2-methyl-propylcarbamoyl)-ethylcarbamoyl]-2,2-dimethyl-propyl}-benzamide]
neutrophil response (unsensitized BN rats; BAL performed 24 h after HDM extract challenge, dosed 2 h prior): clear inhibition
BAL monocyte/macrophage numbers (unsensitized BN rats; [7]): suppressed
BAL neutrophil numbers (unsensitized BN rats; [7]): suppressed
cellularity of BAL fluid (unsensitized BN rats; [7]): suppressed
inhibition at 0.015 mg/kg (unsensitized BN rats; Rattus norvegicus, Eosinophil, inhaled or nasal, 48 h, read-out: inhibition of eosinophil response at peak): > 60%
onset: temporal separation between drug dosing and HDM challenge required to achieve 50% inhibition of the eosinophil response (unsensitized BN rats; estimated, Figure 5D–F, in words): faster in onset
performance in vivo (maximum inhibition of the eosinophil response, Figure 5A) (unsensitized BN rats; focused library, durability of inhibition studies): performed well
effects on BAL neutrophils (unsensitized BN rats; intervening pretreatment intervals, BAL 48 h): insignificant
inhibition of BAL monocytes/macrophages (significance) (unsensitized BN rats; pretreatment 60 min, 15 μg/kg i.t., BAL 48 h): significant
effects on BAL neutrophils (unsensitized BN rats; short or long pretreatment intervals, BAL 48 h): inhibitory
effect on BAL monocytes/macrophages (unsensitized BN rats; shorter pretreatment times, BAL 48 h): modest inhibition
effect on eosinophils with 6–8 h separation of dose and challenge (unsensitized BN rats; [8]): substantial inhibition
time of administration before challenge giving peak effects on eosinophils (unsensitized BN rats; [8]): 2 h
doses required for good activity against the HDM extract (sensitized Balb/c mice): > 0.01 mg/kg
